US20060134063A1, “Agents for proliferating pancreatic beta-cells of the islets of langerhans, agents for suppressing apoptosis of said cells, and screening of candidate compounds for these agents” (priority 2000, published 2006)

Assays:
Reg gene = experiment: RT-PCR of Reg gene expression in RINm5F cells; type: cell-based, rat; details: 24 h with stimulants
Experimental: The Reg gene expression was analyzed by RT-PCR. The cells were harvested after 24 h of culturing in a medium supplemented with stimulants, and total RNA was prepared using cesium trifluoroacetate as described in Takasawa, S. et al. (1993) J. Biol. Chem., 268, 26052-26054. RT-PCR was performed using primers corresponding to nucleotides 23 to 43 and 572 to 593 of rat Reg mRNA (Terazono, K. et al. (1988) J. Biol. Chem., 263, 2111-2114).

90% depancreatized rats = details: PARP inhibitor-treated rats; cited from earlier work
[1] = target: T1, poly(ADP-ribose) synthetase/polymerase (PARP) (Rattus norvegicus, UniProt P27008); experiment: GMSA binding reaction of RINm5F nuclear extracts, effects of ADP-ribosylation; type: biochemical; details: 1 mM β-NAD+ in the GMSA binding reaction; read-out: concentrations of half maximal inhibition (quenching of the effect of β-NAD+ on the GMSA band)
T1 construct: Nuclear extracts from RINm5F cells were prepared as described; endogenous in cells; host or cells: RINm5F (rat insulinoma) nuclear extract
Experimental: The nuclear extract (10 μg) was incubated in a final volume of 20 μl of buffer containing 20 mM Tris-HCl (pH 7.9), 2 mM MgCl2, 50 mM NaCl, 2 mM EDTA, 10% glycerol, 0.1% Nonidet P-40, 1 mM DTT, 50 μg/ml bovine serum albumin and 1 μg of poly(dI-dC). After incubation for 10 min at room temperature, 2.5 pmol of double-stranded DNA, previously labeled by an exchange reaction using MEGALABEL (Takara Shuzo) and [γ-^32P]ATP (Amersham Pharmacia Biotech), were added and incubated for 30 min at room temperature, then the binding reactions were resolved on pre-run 6% acrylamide gel. […] After electrophoresis, DNA/proteins were electrophoretically transferred to a PolyScreen™ PVDF membrane (NEN).
Poly(ADP-ribosyl)ation of nuclear proteins was performed in the same condition as GMSA in the presence of 62 nM [adenylate-^32P]NAD^+ (2×10^6 cpm, NEN). The ADP-ribosylated proteins were precipitated by the addition of 9 volume of acetone, separated by SDS-PAGE (12.5%) and autoradiographed.

[2] = test system: 5'-flanking region of the rat Reg gene; experiment: Reg promoter/luciferase reporter assay in RINm5F cells; type: cell-based
Experimental: A 2,303-bp fragment containing the 5′-flanking region of Reg gene was fused to the luciferase gene and transfected into RINm5F β-cells.
Specifically, luciferase reporter gene constructs were generated as described in Miyashita, H. et al. (1994) Biochim. Biophys. Acta, 1219, 241-243. RINm5F cells were seeded at 1×10^5 cells/well in 24-well dish. After 48 h, 3.0 μg of test plasmid and 0.2 μg of pCMV-SPORT β-gal (Life Technologies, Inc.) were transfected by lipofection (Felgner, J. H. et al. (1994) J. Biol. Chem., 269, 2550-2561) using DMRIE-C™ (Life Technologies, Inc.). After 24 h, the medium of each dish was replaced with fresh medium containing stimulants and incubated further for 24 h. Cells were harvested in 1 ml of ice-cold phosphate-buffered saline (PBS), washed twice with PBS, and extracts were prepared in extraction buffer (0.1 M potassium phosphate, pH 6.8, 1 mM DTT). The protein concentration was determined using a Coomassie reagent kit (Pierce) and bovine serum albumin as a standard. Luciferase activity was determined by a chemiluminescence substrate using a Pica Gene™ Luminescence Kit (Toyo Ink Mfg. Co, Ltd., Tokyo, Japan). β-galactosidase activity was determined using Aurora™ GAL-XE (ICN).

[3] = nicotinamide added to IL-6/dexamethasone

T1 sequence (P27008 whole entry): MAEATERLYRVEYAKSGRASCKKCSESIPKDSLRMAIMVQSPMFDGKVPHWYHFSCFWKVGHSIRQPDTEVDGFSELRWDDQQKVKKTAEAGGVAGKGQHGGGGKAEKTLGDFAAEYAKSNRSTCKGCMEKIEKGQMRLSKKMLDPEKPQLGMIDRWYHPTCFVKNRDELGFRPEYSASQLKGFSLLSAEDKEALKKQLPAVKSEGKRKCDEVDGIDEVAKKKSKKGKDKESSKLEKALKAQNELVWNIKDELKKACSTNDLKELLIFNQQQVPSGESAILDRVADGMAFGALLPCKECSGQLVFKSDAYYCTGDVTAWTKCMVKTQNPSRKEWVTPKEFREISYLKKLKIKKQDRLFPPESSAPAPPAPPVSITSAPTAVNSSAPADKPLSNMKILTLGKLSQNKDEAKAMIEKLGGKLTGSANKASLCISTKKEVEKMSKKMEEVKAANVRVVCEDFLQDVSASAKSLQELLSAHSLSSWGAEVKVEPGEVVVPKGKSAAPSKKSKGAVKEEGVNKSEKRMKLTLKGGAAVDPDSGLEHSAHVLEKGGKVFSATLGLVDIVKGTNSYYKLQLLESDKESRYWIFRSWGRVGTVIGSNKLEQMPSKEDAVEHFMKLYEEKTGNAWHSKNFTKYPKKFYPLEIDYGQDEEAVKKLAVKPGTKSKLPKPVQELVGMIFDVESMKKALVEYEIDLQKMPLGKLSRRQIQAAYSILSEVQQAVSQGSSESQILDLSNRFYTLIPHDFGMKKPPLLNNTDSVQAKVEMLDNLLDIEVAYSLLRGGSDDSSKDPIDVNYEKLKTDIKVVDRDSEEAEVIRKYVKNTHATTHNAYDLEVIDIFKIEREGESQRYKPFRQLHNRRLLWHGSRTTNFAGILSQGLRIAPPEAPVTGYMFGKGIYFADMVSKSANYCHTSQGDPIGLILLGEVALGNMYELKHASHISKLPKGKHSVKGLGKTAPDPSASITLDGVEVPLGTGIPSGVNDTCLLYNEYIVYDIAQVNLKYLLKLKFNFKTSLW

Q: With `NC(=O)c1cccnc1` [nicotinamide] as the compound, how does the “Reg gene expression (Reg mRNA)” value (Reg gene) read?
A: no effect on Reg expression

Q: What about the “development of diabetes after 90% pancreatectomy” value (90% depancreatized rats) of the same compound?
A: preventing the development of diabetes

Q: What about the IC50 [1] of the same compound?
A: 250 µM

Q: And the “luciferase activity (result in words)” value ([2]; 2,303-bp Reg 5'-flanking fragment, 24 h stimulation)?
A: ineffective

Q: And the “enhancement of IL-6/dexamethasone-induced transcription of Reg gene, "-70" construct” value [2, 3]?
A: abolished

Q: And the “enhancement of IL-6/dexamethasone-induced transcription of Reg gene, -2,303 to -81 deletions” value [2, 3]?
A: the enhancement was observed
